Experimental data taken from patent US20090233957A1, “(-)-BELOXEPIN AND METHODS FOR ITS SYNTHESIS AND USE” (priority 2008, published 2009).
pIC50, pKi: −log10 of the molar value.

What was measured:
[1] = molecular target: NET (rat hypothalamus synaptosomes) (Rattus norvegicus, UniProt Q63380); experiment: NE uptake inhibition assay, [3H]norepinephrine into synaptosomes; format: biochemical; conditions: 20 min 37° C., read-out: NET IC50 (norepinephrine reuptake inhibition)
[2] = molecular target: T1, cloned human 5HT2A receptor (Homo sapiens, UniProt P28223); experiment: 5HT2A receptor binding assay, [3H]ketanserin; conditions: HEK-293 membranes
T1 construct: expressed in transfected cells; host or cells: HEK-293 cells
T1 sequence (P28223 whole entry): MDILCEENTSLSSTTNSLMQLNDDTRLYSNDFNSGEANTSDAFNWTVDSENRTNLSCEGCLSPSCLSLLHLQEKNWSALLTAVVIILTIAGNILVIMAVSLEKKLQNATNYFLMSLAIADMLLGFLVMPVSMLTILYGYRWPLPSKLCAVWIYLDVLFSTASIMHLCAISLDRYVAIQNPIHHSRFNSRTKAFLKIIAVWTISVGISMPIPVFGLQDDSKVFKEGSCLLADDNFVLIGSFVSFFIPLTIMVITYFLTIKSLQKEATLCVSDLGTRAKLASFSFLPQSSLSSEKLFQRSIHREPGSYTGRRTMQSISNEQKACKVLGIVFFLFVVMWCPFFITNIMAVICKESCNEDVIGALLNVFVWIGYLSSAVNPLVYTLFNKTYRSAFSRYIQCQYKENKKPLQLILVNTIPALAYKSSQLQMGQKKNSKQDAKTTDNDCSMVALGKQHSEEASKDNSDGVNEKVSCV
Experimental: For the 5HT2A receptor binding assay, [^3H]ketanserin (0.5 nM) was incubated for 60 min at 22° C. with membranes prepared from HEK-293 cells heterologously expressing the cloned human 5-HT2A receptor according to the method of Bonhaus et al., 1995, Brit. J. Pharmacol. 115:622-628. Various concentrations of test compound were added and bound radioactivity was determined by scintillation counting. Non-specific binding was determined in the presence of 1.0 μM unlabeled ketanserin. The Ki value for the test compound was determined using standard methods.

[3] = molecular target: T1, cloned human 5HT2A receptor; experiment: 5HT2A functional assay, intracellular Ca2+ in HEK-293 cells; format: cell-based
Experimental: (§1) Agonist effects at the 5HT2A receptor were assessed by incubation at 22° C. of a series of concentrations of test compound with intact HEK-293 cells heterologously expressing the cloned human 5HT2A receptor and measuring intracellular [Ca^2+] by fluorimetry according to the method of Jerman et al., 2001, Eur. J. Pharmacol. 414:23-30). Antagonist effects were assessed by the ability of a series of concentrations of test compound to block the increase in intracellular [Ca^2+] that occurred in the presence of 3.0 nM serotonin under the same conditions. EC50 and IC50 values were determined using standard methods.

[4] = molecular target: T2, cloned human 5HT2B receptor (Homo sapiens, UniProt P41595); experiment: 5HT2B receptor binding assay, [125I]DOI; conditions: CHO membranes
T2 construct: expressed in transfected cells; host or cells: CHO cells
T2 sequence (P41595 whole entry): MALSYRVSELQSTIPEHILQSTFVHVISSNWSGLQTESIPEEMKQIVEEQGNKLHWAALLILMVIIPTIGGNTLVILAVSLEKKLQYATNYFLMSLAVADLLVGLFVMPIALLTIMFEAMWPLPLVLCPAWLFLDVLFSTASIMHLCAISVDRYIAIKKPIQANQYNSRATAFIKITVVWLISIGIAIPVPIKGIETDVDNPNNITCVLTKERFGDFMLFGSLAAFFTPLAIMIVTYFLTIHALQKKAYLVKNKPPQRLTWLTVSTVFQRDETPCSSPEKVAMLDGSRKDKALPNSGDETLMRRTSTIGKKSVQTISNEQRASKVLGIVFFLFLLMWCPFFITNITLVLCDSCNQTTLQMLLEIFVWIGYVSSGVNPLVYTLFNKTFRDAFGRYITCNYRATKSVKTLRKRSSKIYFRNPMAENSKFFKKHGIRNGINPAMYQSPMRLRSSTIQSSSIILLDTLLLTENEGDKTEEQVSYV
Experimental: For the 5HT2B receptor binding assay, [^125I](±)[…] (DOI) (0.2 nM) was incubated for 15 min at 37° C. with membranes prepared from Chinese hamster ovary cells heterologously expressing the cloned human 5HT2B receptor according to the method of Choi et al., 1994, FEBS Lett 352:393-399. Various concentrations of test compound were added and bound radioactivity was determined by scintillation counting. Non-specific binding was determined in the presence of 1.0 μM unlabeled DOI. The Ki value for the test compound was determined using standard methods.

[5] = molecular target: T2, cloned human 5HT2B receptor; experiment: 5HT2B functional assay, intracellular Ca2+ in CHO cells; format: cell-based
Experimental: as §1, with “5HT2B” for “5HT2A”, “CHO” for “HEK-293”, “Porter” for “Jerman”, “1991, Brit.” for “2001, Eur.”, “128:13-20.” for “414:23-30).”, “0.3” for “3.0”

[6] = molecular target: T3, cloned human 5HT2C receptor (Homo sapiens, UniProt P28335); experiment: 5HT2C functional assay, intracellular Ca2+ in CHO cells; format: cell-based
T3 construct: expressed in transfected cells; host or cells: CHO cells
T3 sequence (P28335 33-458): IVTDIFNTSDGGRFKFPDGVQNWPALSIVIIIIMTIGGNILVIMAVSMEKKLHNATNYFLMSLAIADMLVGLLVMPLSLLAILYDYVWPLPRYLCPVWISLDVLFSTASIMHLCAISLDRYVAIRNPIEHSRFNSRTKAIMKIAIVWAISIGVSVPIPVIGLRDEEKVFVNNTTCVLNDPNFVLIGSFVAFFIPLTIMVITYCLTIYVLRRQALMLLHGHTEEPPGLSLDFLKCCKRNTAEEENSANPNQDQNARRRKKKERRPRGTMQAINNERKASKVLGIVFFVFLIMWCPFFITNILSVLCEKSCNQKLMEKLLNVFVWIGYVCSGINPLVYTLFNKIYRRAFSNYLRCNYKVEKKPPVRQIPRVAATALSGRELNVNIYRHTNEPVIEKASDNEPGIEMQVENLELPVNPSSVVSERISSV
Experimental: as §1, with “5HT2C” for “5HT2A”, “CHO” for “HEK-293”, “414:23-30.” for “414:23-30).”

human recombinant CYP2D6 = molecular target: T4, human recombinant CYP2D6 (Homo sapiens, UniProt P10635); experiment: CYP2D6 inhibition, MAMC substrate; format: in vitro ADME; conditions: microsomes with human recombinant CYP2D6; read-out: CYP2D6 Isoenzyme IC50
T4 construct: purchased BD Bioscience
T4 sequence (P10635 whole entry): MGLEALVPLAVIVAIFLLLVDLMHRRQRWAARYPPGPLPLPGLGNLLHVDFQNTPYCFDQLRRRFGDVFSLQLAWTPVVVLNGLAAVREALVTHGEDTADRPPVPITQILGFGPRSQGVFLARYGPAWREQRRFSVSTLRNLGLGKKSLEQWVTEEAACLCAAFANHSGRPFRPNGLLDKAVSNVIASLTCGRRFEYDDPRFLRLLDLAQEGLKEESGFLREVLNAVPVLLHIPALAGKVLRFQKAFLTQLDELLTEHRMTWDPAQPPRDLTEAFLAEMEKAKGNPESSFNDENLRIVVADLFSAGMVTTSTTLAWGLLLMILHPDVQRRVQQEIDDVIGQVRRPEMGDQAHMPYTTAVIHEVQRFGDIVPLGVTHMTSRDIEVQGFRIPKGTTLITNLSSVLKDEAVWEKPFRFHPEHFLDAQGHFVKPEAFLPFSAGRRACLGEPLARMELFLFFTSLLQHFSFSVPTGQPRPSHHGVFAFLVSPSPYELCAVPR
Experimental: Protocol. […] The source of the enzyme was microsomes containing human recombinant CYP2D6 obtained from BD Bioscience. Conversion of MAMC to 7-hydroxy-4-(aminomethyl)coumarin was measured using a PerkinElmer Fusion with a 390 nm excitation filter and a 460 nm emission filter.

[7] = test system: rat hindpaw incision model; experiment: rat hindpaw incisional pain model, tactile allodynia; format: in vivo; conditions: 30 mg/kg IP, 24 hours post-surgery
Experimental: Protocol. A time course experiment was also performed with (−)-beloxepin in the hindpaw incision model. At 24 hours post-surgery, rats received vehicle or (−)-beloxepin (30 mg/kg IP). Rats were tested for tactile allodynia at 30, 60, 120 and 240 minutes after administration of (−)-beloxepin.
Protocol. Another time course experiment was performed with (+)-beloxepin in the hindpaw incision model. At 24 hours post-surgery, rats received vehicle or (+)-beloxepin (30 mg/kg IP). Rats were tested for tactile allodynia at 30, 60, 120 and 240 minutes after administration of (+)-beloxepin.

[8] = test system: rat 50° C. hot plate model; experiment: rat 50° C. hot plate assay; format: in vivo
Experimental: Protocol. Rats were treated with vehicle, 30 mg/kg IP of (−)-beloxepin, or 30 mg/kg IP of (+)-beloxepin and then were placed on a hot plate (50° C.) 30, 60, or 120 minutes after administration of the vehicle or beloxepin enantiomer. Rats treated with 3 mg/kg SC of morphine and tested 30 min post-treatment were used as a positive control in these experiments.

[9] = antagonist mode, vs 3.0 nM serotonin

NET (rat hypothalamus synaptosomes), sequence (Q63380 1-617): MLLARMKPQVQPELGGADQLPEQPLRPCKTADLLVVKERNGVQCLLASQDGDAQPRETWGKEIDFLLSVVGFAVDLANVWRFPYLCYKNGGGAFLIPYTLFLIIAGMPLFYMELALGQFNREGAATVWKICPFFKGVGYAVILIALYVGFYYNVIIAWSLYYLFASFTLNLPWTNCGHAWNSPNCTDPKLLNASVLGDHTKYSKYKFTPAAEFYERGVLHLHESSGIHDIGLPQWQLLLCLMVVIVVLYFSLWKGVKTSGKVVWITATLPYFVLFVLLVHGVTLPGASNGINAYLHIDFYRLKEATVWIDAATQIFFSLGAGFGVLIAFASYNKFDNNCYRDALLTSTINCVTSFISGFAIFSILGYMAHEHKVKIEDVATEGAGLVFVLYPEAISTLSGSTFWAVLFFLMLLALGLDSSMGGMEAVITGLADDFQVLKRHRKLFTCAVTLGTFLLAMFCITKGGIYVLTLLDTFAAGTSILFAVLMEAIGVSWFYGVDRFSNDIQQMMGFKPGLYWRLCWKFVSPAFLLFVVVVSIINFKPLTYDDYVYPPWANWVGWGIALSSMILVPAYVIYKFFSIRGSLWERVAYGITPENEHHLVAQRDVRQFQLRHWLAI

SMILES: Cc1cccc2c1Oc1ccccc1C1(O)CCN(C)CC21 (single isomer, unassigned; (+)) [(+)-beloxepin]
- pIC50 [1]: 5.92
- pKi [2]: 7.01
- 5HT2A functional activity type [3]: antagonist
- pIC50 [3, 9]: 5.80
- pKi [4]: 6.77
- 5HT2B functional activity type [5]: antagonist
- pIC50 ([5]; antagonist mode, vs 0.3 nM serotonin): 6.16
- 5HT2C functional activity type [6]: antagonist
- pIC50 [6, 9]: 5.14
- pIC50 (human recombinant CYP2D6): 6.63
- maximum hindpaw withdrawal threshold ([7]; 30 minute time point): ~28 grams
- antiallodynic effect ([7]; tested 30, 60, 120, 240 min): significant antiallodynic effect at the 30 and 60 minute time points
- antinociceptive activity ([8]; 30 mg/kg IP, 30, 60, 120 min): no antinociception was observed
- % MPE values (range) ([8]; 30 mg/kg IP, 30, 60 or 120 min): 10-17%
